Data on eight compounds can be found in article PMC9098890 (European Journal of Medicinal Chemistry, 2022).

In one test the test system is SARS-CoV-2 (WIV04). Put plainly: Anti-viral activity assay. The test is classed as cell-based.
For the next test, the target named is SARS-CoV-2 3CL^Pro (Severe acute respiratory syndrome coronavirus 2, UniProt P0DTD1). Briefly: Enzymatic inhibitory activity assay. In kind it is biochemical. The note with it: IC50 compared with positive control 1.

Molecules are shown by their SMILES.

`CC(C)C[C@H](NC(=O)[C@@H](NC(=O)/C=C/c1ccccc1)C(C)C)C(=O)N[C@H](C=O)C[C@@H]1CCCNC1=O` [Compound 14c, (S)-2-((S)-2-cinnamamido-3-methylbutanamido)-4-methyl-N-((S)-1-oxo-3-((S)-2-oxopiperidin-3-yl)propan-2-yl)pentanamide]: the “antiviral activity against SARS-CoV-2 (in words)” value with SARS-CoV-2 (WIV04) was “no antiviral activity”.

As for `CC(C)(C)[C@H](NC(=O)/C=C/c1ccccc1)C(=O)N[C@H](C=O)C[C@@H]1CCCNC1=O` [Compound 10h, (S)-2-cinnamamido-3,3-dimethyl-N-((S)-1-oxo-3-((S)-2-oxopiperidin-3-yl)propan-2-yl)butanamide], in the test with SARS-CoV-2 (WIV04), the “reduction of SARS-CoV-2 viral RNA” value was “more than 2 logs”.

As to `CC(C)C[C@H](NC(=O)[C@@H](NC(=O)c1ccc2ccccc2c1)C(C)C)C(=O)N[C@H](C=O)C[C@@H]1CCCNC1=O` [Compound 17i, N-((S)-3-methyl-1-(((S)-4-methyl-1-oxo-1-(((S)-1-oxo-3-((S)-2-oxopiperidin-3-yl)propan-2-yl)amino)pentan-2-yl)amino)-1-oxobutan-2-yl)-2-naphthamide], the “reduction of SARS-CoV-2 viral RNA” value in the test on SARS-CoV-2 (WIV04) is “more than 2 logs”.

On to `CC(C)C[C@H](NC(=O)[C@@H](NC(=O)c1ccc(Cl)cc1)C(C)C)C(=O)N[C@H](C=O)C[C@@H]1CCCNC1=O` [Compound 17w, 4-chloro-N-((S)-3-methyl-1-(((S)-4-methyl-1-oxo-1-(((S)-1-oxo-3-((S)-2-oxopiperidin-3-yl)propan-2-yl)amino)pentan-2-yl)amino)-1-oxobutan-2-yl)benzamide], for which the “increased inhibitory potency versus positive control 1” value on SARS-CoV-2 3CL^Pro stood at 4 fold.

In the case of `CCCC[C@H](NC(=O)/C=C/c1ccccc1)C(=O)N[C@H](C=O)C[C@@H]1CCNC1=O` [Compound 10c, (S)-2-cinnamamido-N-((S)-1-oxo-3-((S)-2-oxopyrrolidin-3-yl)propan-2-yl)hexanamide], the “reduction of SARS-CoV-2 viral RNA” value with SARS-CoV-2 (WIV04) is on record as “more than 2 logs”.

`CC(C)C[C@H](NC(=O)/C=C/c1ccccc1)C(=O)N[C@H](C=O)C[C@@H]1CCCNC1=O` [Compound 10g, (S)-2-cinnamamido-4-methyl-N-((S)-1-oxo-3-((S)-2-oxopiperidin-3-yl)propan-2-yl)pentanamide]: the “reduction of SARS-CoV-2 viral RNA” value in the test with SARS-CoV-2 (WIV04) is recorded as “more than 2 logs”.

Regarding `CC(C)C[C@H](NC(=O)[C@H](CC1CCCCC1)NC(=O)/C=C/c1ccccc1)C(=O)N[C@H](C=O)C[C@@H]1CCCNC1=O` [Compound 14d, (S)-2-((S)-2-cinnamamido-3-cyclohexylpropanamido)-4-methyl-N-((S)-1-oxo-3-((S)-2-oxopiperidin-3-yl)propan-2-yl)pentanamide], the “reduction of SARS-CoV-2 viral RNA” value with SARS-CoV-2 (WIV04) is recorded as “more than 2 logs”.

For `CC(C)C[C@H](NC(=O)/C=C/c1ccccc1)C(=O)N[C@H](C=O)C[C@@H]1CCNC1=O` [Compound 10b, (S)-2-cinnamamido-4-methyl-N-((S)-1-oxo-3-((S)-2-oxopyrrolidin-3-yl)propan-2-yl)pentanamide], the “reduction of SARS-CoV-2 viral RNA” value in the test on SARS-CoV-2 (WIV04) is reported as “more than 2 logs”.
